In PubChem BioAssay (NCI):
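96-well plates; 48 h exposure; 5 concentrations. Endpoints by linear interpolation between flanking doses. Not reached: highest tested concentration assigned. The concentration for full growth arrest is given as TGI.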

Assays:
Assay in all cases: inhibition of tumour cell growth, NCI panel, 48 h
HOP-18 NSCLC = test system: HOP-18 NSCLC
DMS 273 small cell lung = test system: DMS 273 small cell lung
LXFL 529 NSCLC = test system: LXFL 529 NSCLC
XF 498 CNS = test system: XF 498 CNS
RXF-631 renal = test system: RXF-631 renal
KM20L2 colon = test system: KM20L2 colon
MDA-N = test system: MDA-N
SNB-78 CNS = test system: SNB-78 CNS
DMS 114 small cell lung = test system: DMS 114 small cell lung

Compound	TGI (HOP-18 NSCLC)	TGI (DMS 273 small cell lung)	TGI (LXFL 529 NSCLC)	TGI (XF 498 CNS)	TGI (RXF-631 renal)	TGI (KM20L2 colon)	TGI (MDA-N)	TGI (SNB-78 CNS)	TGI (DMS 114 small cell lung)
CC(C)(C)OC(=O)N[C@H]1CC2(C=C(Cl)C(=O)C(Cl)=C2)OC1=O	30.4 µM	32.9 µM	23.8 µM	34.5 µM	30.5 µM	39.4 µM	35.5 µM	40 µM	
C[Si](C)(C)C1(Sc2ccccc2)SCCCS1		> 100 µM	> 100 µM	> 100 µM				> 100 µM	> 100 µM
N#CC(C#N)=CNC(N)=S							> 100 µM		
N=Nc1c(OC(=O)Nc2cccc(Cl)c2)[nH]c2ccccc12							10.1 µM		
OCc1ccc(-c2ccc(-c3ccc(CO)s3)o2)s1	32.6 µM	> 49.5 µM	0.0435 µM	0.356 µM		1.19 µM	39.6 µM		> 100 µM
Cc1ccccc1S(=O)(=O)OC1NS(=O)(=O)c2ccccc21 (configuration not stated)							> 100 µM		
COc1ccc(S(=O)(=O)NNS(C)(=O)=O)cc1		> 100 µM	> 100 µM	> 100 µM	> 100 µM	> 100 µM			> 100 µM
CCCCCCN(CCCCCC)C(=O)Cc1c2n(c3ccccc13)Cc1ccccc1-2	> 100 µM	> 100 µM	> 100 µM			> 100 µM		> 100 µM	82 µM
Cc1ccc(NC(=O)c2cc3cc(N=Nc4ccccc4C(=O)O)ccc3oc2=O)cc1	> 100 µM	> 100 µM		85.8 µM		> 100 µM			94.3 µM
CCOC(=O)CC(=O)ON(C)C(C)=O			> 100 µM	> 100 µM		> 100 µM		> 100 µM	> 100 µM
c1ccc(COc2cccc3ccc[n+](Cc4ccccc4)c23)cc1	15.4 µM	17.7 µM	20.3 µM	31.4 µM	> 100 µM	93.8 µM			14.6 µM
CCOC(=O)c1cc2nc3ccccc3c(=O)n2c2ccccc12							> 10 µM		
C/C(=N\NC(=S)NC(CCC(=O)O)C(=O)O)c1ccccn1 (configuration not stated)	> 100 µM		> 100 µM	> 100 µM	> 100 µM	> 100 µM		> 100 µM	> 100 µM
CN(C)c1ccc(/C=C(\NC(=O)c2ccccc2)c2nc3ncncc3[nH]2)cc1			> 100 µM	> 100 µM	> 100 µM	> 100 µM		> 100 µM	> 100 µM
CC(C)=Cc1cc(C(=O)Nc2ccc(Cl)c(Cl)c2)nc(N)n1	> 100 µM	> 100 µM	> 100 µM	> 100 µM	> 100 µM	> 100 µM		> 100 µM	> 100 µM
C#CC1(O)CCC2C3CCc4cc(Oc5nc(F)nc(-c6c7ccccc7c7sc8ccccc8n67)n5)ccc4C3CC[C@@]21C (some centres not stated)		> 100 µM	> 100 µM	> 100 µM		> 100 µM			
C=C(Br)C(C)(Br)CCC(Br)C(C)(C)Cl (configuration not stated)							39.8 µM		
CCN(CC)/C(SCc1ccccc1)=C(\C(Cl)=C(Cl)Cl)[N+](=O)[O-]							33.8 µM		
CC1(C)C2CCC(=O)C1CC2 (configuration not stated)							> 100 µM		
Cc1cc(O)c(/C=N/C(=S)NCc2ccccc2)c(=O)o1							> 100 µM		
CCOC(=O)NC(=O)c1cn(CCCO)c(=O)[nH]c1=O	> 100 µM	> 100 µM		> 100 µM	> 100 µM	> 100 µM		> 100 µM	> 100 µM
NC1(C(=O)OCc2ccccc2)CCCC1							49.6 µM		
CC(=O)OC1=CC(n2cc(F)c(=O)[nH]c2=O)OC(C)C1=O (configuration not stated)	> 100 µM	> 100 µM	> 100 µM	> 100 µM			> 100 µM	> 100 µM	> 100 µM
